Measurements as given in patent US20080200467A1, “SOLUBLE EPOXIDE HYDROLASE INHIBITORS” (Arete Therapeutics, Inc., priority 2006, published 2008).
Values belong to the compound of their own block, whether it stands above or below them.

Experiments:
[1] = test system: soluble epoxide hydrolase (sEH); assay: Fluorescent Assay for Mouse and Human Soluble Epoxide Hydrolase (CMNPC substrate); assay type: biochemical
Text: Fluorescent Assay for Mouse and Human Soluble Epoxide Hydrolase Recombinant mouse sEH (MsEH) and human sEH (HsEH) were produced in a baculovirus expression system as previously reported. Grant et al., J. Biol. Chem., 268:17628-17633 (1993); Beetham et al., Arch. Biochem. Biophys., 305:197-201 (1993). The expressed proteins were purified from cell lysate by affinity chromatography. Wixtrom et al., Anal. Biochem., 169:71-80 (1988). Protein concentration was quantified using the Pierce BCA assay using bovine serum albumin as the calibrating standard. The preparations were at least 97% pure as judged by SDS-PAGE and scanning densitometry. They contained no detectable esterase or glutathione transferase activity which can interfere with the assay. The assay was also evaluated with similar results in crude cell lysates or homogenate of tissues. The IC50s for each inhibitor were according to the following procedure: [drawing 218] […] Jones P. D. et. al.; Analytical Biochemistry 2005; 343: pp. 66-75) Bis/Tris HCl 25 mM pH 7.0 containing 0.1 mg/mL of BSA (buffer […] at 0.25 mM in DMSO. Mother solution of enzyme in buffer A (Mouse sEH at 6 μg/mL and Human sEH at 5 μg/mL). Inhibitor dissolved in DMSO at the appropriate concentration. In a black 96 well plate, fill all the wells with 150 μL of buffer A. Add 2 μL of DMSO in well A2 and A3, and then add 2 μL of inhibitor solution in A1 and A4 through A12. Add 150 μL of buffer A in row A, then mix several time and transfer 150 μL to row B. Repeat this operation up to row H. The 150 μL removed from row H is discarded. Add 20 μL of buffer A in column 1 and 2, then add 20 μL of enzyme solution to column 3 to 12. Incubate the plate for 5 minutes in the plate reader at 30° C. During incubation prepare the working solution of substrate by mixing 3.68 mL of buffer A (4×0.920 mL) with 266 μL (2×133 μL) of substrate solution). At t=0, add 30 μL of working substrate solution with multi-channel pipette labeled “Briggs 303” and start the reading ([S]final: 5 μM). Read with ex: 330 nm (20 nm) and em: 465 nm (20 nm) every 30 second for 10 minutes. The velocities are used to analyze and calculate the IC50s. Tables 4-6 show the activity of compounds when tested with the assay at 50, 500, 5000, 50000, and 500000 nM.

[2] = test system: soluble epoxide hydrolase (sEH); assay: Fluorescent Assay for Mouse and Human Soluble Epoxide Hydrolase (CMNPC substrate); assay type: biochemical; conditions: Concentration 2000 nM

SMILES: O=C(Nc1cccc(OCc2ccccc2)c1)C(O)C12CC3CC(CC(C3)C1)C2 (stereo not drawn) [Compound 110, 2-Adamantan-1-yl-N-(3-benzyloxy-phenyl)-2-hydroxy-acetamide]
% Inhibition ([1]; Concentration 500 nM): 79%
melting point: 130 to 132 °C

SMILES: O=C(Nc1cccc(OCc2ccccc2)c1)C(=O)C12CC3CC(CC(C3)C1)C2 [Compound 13, 2-Adamantan-1-yl-N-(3-benzyloxy-phenyl)-2-oxo-acetamide]
% Inhibition ([1]; Concentration 5000 nM): 86%
melting point: 106 to 107 °C

SMILES: O=C(Nc1ccc(-n2ccnc2)cc1)C(O)C12CC3CC(CC(C3)C1)C2 (stereo not drawn) [Compound 119, 2-Adamantan-1-yl-2-hydroxy-N-(4-imidazol-1-yl-phenyl)-acetamide]
% Inhibition ([1]; Concentration 50000 nM): 98%
melting point: 219 to 220 °C

SMILES: O=C(CCC12CC3CC(CC(C3)C1)C2)C(=O)NCCc1ccc(OCc2ccccc2)cc1 [Compound 25]
% Inhibition [2]: 23%

SMILES: Cc1ccc(S(=O)(=O)N2CCC(NC(=O)C(O)CCC3CCCCC3)CC2)cc1 (stereo not drawn) [Compound 140, 4-Cyclohexyl-2-hydroxy-N-(1-tosylpiperidin-4-yl)butanamide]
% Inhibition ([1]; Concentration 500 nM): 78%

SMILES: O=C(NCCc1ccc(OCc2ccccc2)cc1)C(O)CCC12CC3CC(CC(C3)C1)C2 (stereo not drawn) [Compound 129, 4-Adamantan-1-yl-N-[2-(4-benzyloxy-phenyl)-ethyl]-2-hydroxy-butyramide]
% Inhibition ([1]; Concentration 50 nM): 70%

SMILES: Cc1ccc(S(=O)(=O)N2CCC(NC(=O)C(=O)C3CCCCC3)CC2)cc1 [Compound 10, 2-Cyclohexyl-2-oxo-N-[1-(toluene-4-sulfonyl)-piperidin-4-yl]-acetamide]
% Inhibition ([1]; Concentration 5000 nM): 70%

SMILES: O=C(NCCc1ccc(OCc2ccccc2)cc1)C(O)Cc1ccc(C(F)(F)F)cc1 (stereo not drawn) [Compound 144, N-(4-(Benzyloxy)phenethyl)-2-hydroxy-3-(4-(trifluoromethyl)phenyl)propanamide]
% Inhibition ([1]; Concentration 50000 nM): 66%

More lines, now with the values ahead:

% Inhibition [2]: 81%
SMILES: O=C(NCCc1ccc(C(=O)N2CCOCC2)cc1)C(O)CCC12CC3CC(CC(C3)C1)C2 (stereo not drawn) [Compound 157, 4-Adamantan-1-yl-2-hydroxy-N-(4-(morpholine-4-carbonyl)phenethyl)butanamide]

% Inhibition ([1]; Concentration 500 nM): 81%
SMILES: COC(=O)CCCCCCCCCCCNC(=O)C(O)CC12CC3CC(CC(C3)C1)C2 (stereo not drawn) [Compound 160, Methyl 12-(3-adamantan-1-yl-2-hydroxypropanamido)dodecanoate]

% Inhibition ([1]; Concentration 50 nM): 95%
SMILES: O=C(NC1CCN(S(=O)(=O)c2ccc(Cl)cc2)CC1)C(O)C12CC3CC(CC(C3)C1)C2 (stereo not drawn) [Compound 149, N-(1-(4-Chlorophenylsulfonyl)piperidin-4-yl)-2-adamantan-1-yl-2-hydroxyacetamide]

% Inhibition ([1]; Concentration 5000 nM): 86%
SMILES: O=C(O)CCCCCCCCCCCNC(=O)C(O)c1ccc(C(F)(F)F)cc1 (stereo not drawn) [Compound 159, 12-(2-Hydroxy-2-(4-(trifluoromethyl)phenyl)acetamido)dodecanoic acid]
